Measured values from patent US9687480B2, “Chiral 1-(4-methylphenylmethyl)-5-oxo-{N-[(3-t-butoxycarbonyl-aminomethyl)]-piperidin-1-yl)-pyrrolidine as inhibitors of collagen induced platelet activation and adhesion” (Council of Scientific & Industrial Research, priority 2011, dated 2017).
Where two headings read alike, the source gives them in different places.

Columns and labels:
[1] = molecular target: T1, Integrin α2β1 (Homo sapiens, UniProt P05556+P17301); assay: α2β1-mediated platelet adhesion assay on soluble collagen (human, in vitro); assay type: cell-based; settings: washed platelets, with Mg2+
T1 construct: Washed platelets, suspended in the Tyrode's-HEPES buffer; endogenous in cells; host or cells: washed human platelets from healthy volunteers
Description: Fresh blood was drawn by venipuncture from consenting healthy human volunteers in citrate-phosphate-dextrose. Platelet-rich plasma (PRP) was obtained by centrifugation at 180 g for 20 minutes at room temperature (Beckman TJ6. USA). […] Platelets were then washed twice with Buffer (20 mMHEPES, 138 mM NaCl, 2.9 mMKCl, 1 mMMgCl2, 0.36 mMNaH2PO4, 1 mM EGTA, 4.77 mM trisodium citrate, and 2.35 mM citric acid, 5 mM glucose and Apyrase 1 U/ml, pH 6.5) containing 0.1% bovine serum albumin (BSA) and finally resuspended in the HEPES-buffered Tyrode solution (pH 7.4), to give a concentration of 2×10^8 cells/mL (Jandrot-Perrus M. Lagrue A H, Okuma M, and Boni C Adhesion and Activation of Human Platelets Induced by Convulxin Involve Glycoprotein VI and Integrin α2β1 J. Biol. Chem. 1997; 272: 27035-27041).
Integrin α2β1 binding on soluble collagen depends on the presence of Mg2+/Ca^2+ (Onley D. J., Knight C. G., Tuckwell D. S., Barnes M. J., and Farndale R. W. Micromolar Ca2+ concentrations are essential for Mg2+-dependent binding of collagen by the integrin α2β1 in human platelets. J. Biol. Chem, 2000; 275: 24560-24564.) while GPVI mediates adhesion over fibrillar collagen in absence of divalent ions (Nieswandt B., Brakebusch C, Bergmeier W, Schulte V, Bouvard D, Nejad R M, Lindhout T, Heemskerk J W M, Zirngibl H and Fassler R. Glycoprotein VI but not α2b1 integrin is essential for platelet interaction with collagen. The EMBO Journal, 2001; 20:2120-2130) and therefore the adhesion assays were performed in the presence or absence of these divalent cations. […]

[2] = test system: mice; assay: Tail bleeding time in mice; assay type: in vivo; settings: for prolongation in bleeding time: 30 μM/kg, 1 hr p.o. dosing; for Bleeding Time in mice: Table 2 summary
Description: Bleeding time in mice was evaluated by the method of Dejana et al, (Dejana E, Callioni A, Quintana A, Gaetano G. Bleeding time in laboratory animals. II—A comparison of different assay conditions in rats. […] The time elapsed from the tip incision to the stoppage of bleeding was determined as the bleeding time. The preferred compounds, aspirin (30 mg/kg) or vehicle was given orally 60 min prior to the tail incision in a group of 5 mice each.

[3] = test system: human platelet rich plasma (collagen induced aggregation); assay: Collagen induced platelet aggregation, human platelet rich plasma (in vitro); assay type: cell-based; settings: for activity against collagen induced aggregation: in vitro, human platelet rich plasma; for IC50: human PRP, collagen 2 μg/ml, read-out: Collagen induced platelet aggregation studies (Human) IC50
Description: (§1) The reaction was allowed to proceed for at least 5 min, and the extent of aggregation was expressed in light-transmission units (Ivandic B T, Schlick P, Starltz P, Kurz K, Katas H A, Giannitsis E. Determination of clopidogrel resistance by whole blood platelet aggregometry and inhibitors of the P2Y12 receptor. Clinical Chemistry 2006: 52:383-88).
(§2) The percentage of aggregation was calculated by using following formula: Percent Aggregation=A/B×100 Where, A is the number of division traversed by the label on chart in the presence of Inducer & B is the total number of divisions (80). Platelet Aggregation Studies (FIG. 3) a) Platelet Aggregation (Human, In Vitro) (FIG. 3a (i) (ii) (iii))

[4] = test system: hyperlipidemic hamsters; assay: FeCl3 induced thrombosis in hyperlipidemic hamsters; assay type: in vivo; settings: for time to occlusion (TTO): HCHF fed hamsters
Description: HCHF treated hamsters were anesthetized by urethane (1.25 g/kg, i.p.). The carotid artery was carefully dissected and a pulsed Doppler Probe (DBF-120A-CPx, CBI-8000, Crystal Biotech. USA) was placed around it to record the blood flow velocity and potency of the blood vessels. The carotid artery thrombosis was induced by FeCl3 as follows: a square (1×1 mm) of Whatman Chromatography paper was immersed in 30% FeCl3 solution for 5 min and placed on the carotid artery as described earlier (Kurz K D, Main B W, Sandusky G E. Rat model of arterial thrombosis induced by ferric chloride. Thromb Res 1990; 60(4):269-80). Thrombosis was monitored as the reduction in carotid artery blood flow. The time at which the blood-flow velocity was decreased to zero was recorded as the total of occlusion of the vessel.

[5] = test system: human platelet rich plasma (Ristocetin, GP 1b specific agonist); assay: Ristocetin induced platelet aggregation, human platelet rich plasma (in vitro); assay type: cell-based; settings: 1.5 mg/ml Ristocetin
Description: as §1, §2

T1 sequence (P17301 30-1181): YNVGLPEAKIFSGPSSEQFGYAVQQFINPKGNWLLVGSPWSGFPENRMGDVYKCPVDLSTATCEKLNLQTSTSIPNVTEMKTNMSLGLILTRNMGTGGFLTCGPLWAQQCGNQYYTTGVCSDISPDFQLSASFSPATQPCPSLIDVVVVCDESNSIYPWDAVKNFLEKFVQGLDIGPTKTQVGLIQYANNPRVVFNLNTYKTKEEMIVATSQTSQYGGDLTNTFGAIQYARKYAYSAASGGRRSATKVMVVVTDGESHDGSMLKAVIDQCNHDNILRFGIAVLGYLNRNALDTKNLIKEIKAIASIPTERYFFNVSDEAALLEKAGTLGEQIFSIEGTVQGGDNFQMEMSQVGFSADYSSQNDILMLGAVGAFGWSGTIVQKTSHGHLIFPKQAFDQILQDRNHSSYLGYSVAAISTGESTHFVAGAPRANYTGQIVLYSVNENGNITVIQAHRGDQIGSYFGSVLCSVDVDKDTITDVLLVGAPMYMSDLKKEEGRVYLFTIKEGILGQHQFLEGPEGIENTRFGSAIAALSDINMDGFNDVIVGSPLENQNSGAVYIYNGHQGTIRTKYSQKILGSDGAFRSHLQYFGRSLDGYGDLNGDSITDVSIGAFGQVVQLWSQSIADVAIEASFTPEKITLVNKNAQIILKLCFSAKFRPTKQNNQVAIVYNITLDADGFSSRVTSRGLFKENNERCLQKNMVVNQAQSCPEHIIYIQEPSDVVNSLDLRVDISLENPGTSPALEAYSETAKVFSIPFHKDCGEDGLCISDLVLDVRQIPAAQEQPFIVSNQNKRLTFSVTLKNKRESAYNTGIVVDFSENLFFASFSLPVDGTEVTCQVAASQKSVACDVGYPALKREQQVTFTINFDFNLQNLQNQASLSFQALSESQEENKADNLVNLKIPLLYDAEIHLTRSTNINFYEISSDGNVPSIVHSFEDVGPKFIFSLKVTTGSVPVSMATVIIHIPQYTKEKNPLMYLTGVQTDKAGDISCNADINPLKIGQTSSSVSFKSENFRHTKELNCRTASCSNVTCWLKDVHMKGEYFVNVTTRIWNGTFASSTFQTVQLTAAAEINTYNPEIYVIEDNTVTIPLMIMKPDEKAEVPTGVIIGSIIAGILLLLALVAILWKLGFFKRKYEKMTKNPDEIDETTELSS
T1 sequence (P05556 21-798): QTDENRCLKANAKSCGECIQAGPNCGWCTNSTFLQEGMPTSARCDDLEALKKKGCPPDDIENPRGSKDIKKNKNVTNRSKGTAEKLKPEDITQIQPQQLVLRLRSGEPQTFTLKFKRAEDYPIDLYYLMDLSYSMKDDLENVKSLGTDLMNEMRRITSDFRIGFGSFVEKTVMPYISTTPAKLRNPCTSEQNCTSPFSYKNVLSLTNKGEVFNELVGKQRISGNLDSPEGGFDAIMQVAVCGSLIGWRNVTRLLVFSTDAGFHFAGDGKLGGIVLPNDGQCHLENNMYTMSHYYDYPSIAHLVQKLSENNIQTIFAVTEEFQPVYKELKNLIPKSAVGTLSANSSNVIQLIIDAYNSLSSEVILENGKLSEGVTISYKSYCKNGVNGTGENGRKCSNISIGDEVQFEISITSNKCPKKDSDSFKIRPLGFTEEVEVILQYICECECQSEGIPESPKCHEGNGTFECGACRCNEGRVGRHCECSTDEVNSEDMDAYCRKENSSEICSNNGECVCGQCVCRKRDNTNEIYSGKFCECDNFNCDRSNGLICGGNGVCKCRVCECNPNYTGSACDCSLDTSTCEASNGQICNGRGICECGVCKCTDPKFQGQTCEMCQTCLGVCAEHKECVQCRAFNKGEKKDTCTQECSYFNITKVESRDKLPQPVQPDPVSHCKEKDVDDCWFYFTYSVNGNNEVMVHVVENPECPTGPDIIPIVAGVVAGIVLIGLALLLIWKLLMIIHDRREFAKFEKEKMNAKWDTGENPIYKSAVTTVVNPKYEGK

| Molecule | human platelet adhesion on soluble collagen (GP Ia IIa / α2β1 mediated) [1] | prolongation in bleeding time [2] | activity against collagen induced aggregation [3] | time to occlusion (TTO) [4] | Bleeding Time in mice [2] [fold] | IC50 ([3]; Platelet) [µM] | Ferric chloride induced thrombosis in hyperlipidemic hamsters ([4]; Table 2 summary) | inhibition of Ristocetin induced platelet aggregation [5] | IC50 [3] [µM] |
| --- | --- | --- | --- | --- | --- | --- | --- | --- | --- |
| Cc1ccc(CN2C(=O)CC[C@H]2C(=O)N2CCCC(CNC(=O)OC(C)(C)C)C2)cc1 (stereo partly drawn) [Compound 1, 1-(4-methylphenylmethyl)-5-oxo-{N-[(3-t-butoxycarbonyl-aminomethyl)]-piperidin-1-yl}-pyrrolidine-2-carboxamides] | partially inhibited | approximately 1.5 fold | active | remained ineffective |  |  |  |  |  |
| Cc1ccc(CN2C(=O)CC[C@H]2C(=O)N2CCC[C@@H](CNC(=O)OC(C)(C)C)C2)cc1 [Compound 6] | partially inhibited | approximately 1.5 fold | active | significantly increased | 1.5 | ~10 | Protective | not to exhibit any effect |  |
| 1-(4-methylphenylmethyl)-5-oxo-{N-[(3-t-butoxycarbonyl-aminomethyl)]-piperidin-1-yl}-pyrrolidine-2-carboxamides [Compound 1] |  |  |  |  | 2 |  |  |  | ~10 |
| Cc1ccc(CN2C(=O)CC[C@H]2C(=O)N2CCC[C@H](CNC(=O)OC(C)(C)C)C2)cc1 [Compound 7, (2S)-1-(4-methylphenylmethyl)-5-oxo-(3R)-{N-[(3-t-butoxycarbonyl-aminomethyl)]-piperidin-1-yl}-pyrrolidine-2-carboxamide] | partially inhibited | approximately 1.5 fold | active | remained ineffective | 1.5 | > 10 |  | not to exhibit any effect |  |
